≈ marks a conversion by molar mass, not a printed value.
Key:
Staphylococcus aureus [1] = experiment: Selectivity ratio of IC50 for Staphylococcus aureus DNA gyrase Ser84Leu mutant to IC50 for Staphylococcus aureus wild type DNA gyrase
[2] = Ratio of AUC (0 to 6 hrs) liver to serum in Crj:CD rat […] at 20 mg/kg, iv; assay type: ADME, organism-based; design: dose 20 mg/kg, route intravenous
[3] = Inhibition of Staphylococcus aureus DNA topoisomerase 4 Ser80Phe mutant
[4] = Inhibition of Staphylococcus aureus wild type DNA topoisomerase 4
[5] = AUC (0 to 6 hrs) in Crj:CD rat kidney at 20 mg/kg, iv; assay type: ADME, organism-based; design: time < 6 hr, dose 20 mg/kg, route intravenous
Mus musculus [6] = experiment: Toxicity in Slc:ddY mouse assessed as micronucleated reticulocyte in blood at 150 mg/kg, iv after 48 hrs of treatment by fluorescence microscopy; assay type: organism-based; design: dose 150 mg/kg, route intravenous; conditions: in vivo
[7] = AUC (0 to 6 hrs) in cynomolgus monkey serum at 20 mg/kg, po; assay type: ADME, organism-based, Macaca fascicularis, Plasma; design: time < 6 hr, dose 20 mg/kg, route oral
[8] = Cmin in Crj:CD rat lung at 20 mg/kg, iv after 5 mins; assay type: ADME, organism-based; design: dose 20 mg/kg, route intravenous; conditions: read-out: Cmin
[9] = Oral bioavailability in Crj:CD rat serum at 20 mg/kg; assay type: ADME, organism-based
[10] = Cmin in Crj:CD rat liver at 20 mg/kg, iv after 5 mins; assay type: ADME, organism-based; design: dose 20 mg/kg, route intravenous; conditions: read-out: Cmin
[11] = Oral bioavailability in cynomolgus monkey serum at 20 mg/kg; assay type: ADME, organism-based, Macaca fascicularis
[12] = AUC (0 to 6 hrs) in cynomolgus monkey serum at 20 mg/kg, iv; assay type: ADME, organism-based, Macaca fascicularis, Plasma; design: time < 6 hr, dose 20 mg/kg, route intravenous
[13] = AUC (0 to 6 hrs) in Crj:CD rat lung at 20 mg/kg, iv; assay type: ADME, organism-based; design: time < 6 hr, dose 20 mg/kg, route intravenous
Enterococcus faecium = experiment: Antibacterial activity against vancomycin-resistant Enterococcus faecium after 18 hrs by twofold microbroth dilution method; assay type: functional
[14] = AUC (0 to 6hrs) in Crj:CD rat serum at 20 mg/kg, po; assay type: ADME, organism-based; design: time < 6 hr, dose 20 mg/kg, route oral
Klebsiella pneumoniae = experiment: Antibacterial activity against Klebsiella pneumoniae type 2 after 18 hrs by twofold microbroth dilution method; assay type: functional; conditions: type 2, 18 h
DNA gyrase = DNA gyrase (Staphylococcus aureus, UniProt P0A0K8+P20831); experiment: Inhibition of Staphylococcus aureus wild type DNA gyrase; assay type: protein-complex assay
[15] = Half life in Crj:CD rat liver at 20 mg/kg, iv; assay type: ADME, organism-based; design: dose 20 mg/kg, route intravenous
[16] = Half life in Crj:CD rat kidney at 20 mg/kg, iv; assay type: ADME, organism-based; design: dose 20 mg/kg, route intravenous
Streptococcus pneumoniae [17] = experiment: Antibacterial activity against penicillin-intermediate resistant Streptococcus pneumoniae after 18 hrs by twofold microbroth dilution method; assay type: functional
Staphylococcus aureus [18] = experiment: Antibacterial activity against levofloxacin, methicillin-resistant Staphylococcus aureus after 18 hrs by twofold microbroth dilution method; assay type: functional
Streptococcus pyogenes = experiment: Antibacterial activity against Streptococcus pyogenes G-36 after 18 hrs by twofold microbroth dilution method; assay type: functional; conditions: G-36, 18 h
[19] = Cmax in cynomolgus monkey serum at 20 mg/kg, po; assay type: ADME, organism-based, Macaca fascicularis; design: dose 20 mg/kg, route oral
Streptococcus mitis = experiment: Antibacterial activity against Streptococcus mitis IID685 after 18 hrs by twofold microbroth dilution method; assay type: functional; conditions: IID685, 18 h
Pseudomonas aeruginosa = experiment: Antibacterial activity against Pseudomonas aeruginosa PAO1 after 18 hrs by twofold microbroth dilution method; assay type: functional; conditions: PAO1, 18 h
DNA gyrase subunit A = DNA gyrase subunit A (Staphylococcus aureus, UniProt P20831, S84L); experiment: Inhibition of Staphylococcus aureus DNA gyrase Ser84Leu mutant
Enterococcus faecalis [20] = experiment: Antibacterial activity against vancomycin-resistant Enterococcus faecalis after 18 hrs by twofold microbroth dilution method; assay type: functional
[21] = AUC (0 to 6 hrs) in Crj:CD rat serum at 20 mg/kg, iv; assay type: ADME, organism-based; design: time < 6 hr, dose 20 mg/kg, route intravenous
[22] = Half life in cynomolgus monkey serum at 20 mg/kg, po; assay type: ADME, organism-based, Macaca fascicularis; design: dose 20 mg/kg, route oral
[23] = Aqueous […] of the compound; assay type: physicochemical; conditions: aqueous (not further specified)
[24] = Cmax in cynomolgus monkey serum at 20 mg/kg, iv; assay type: ADME, organism-based, Macaca fascicularis; design: dose 20 mg/kg, route intravenous
[25] = Half life in cynomolgus monkey serum at 20 mg/kg, iv; assay type: ADME, organism-based, Macaca fascicularis; design: dose 20 mg/kg, route intravenous
Escherichia coli = experiment: Antibacterial activity against Escherichia coli NIHJ after 18 hrs by twofold microbroth dilution method; assay type: functional
[26] = Cmax in Crj:CD rat serum at 20 mg/kg, po; assay type: ADME, organism-based; design: dose 20 mg/kg, route oral
[27] = AUC (0 to 6 hrs) in Crj:CD rat liver at 20 mg/kg, iv; assay type: ADME, organism-based; design: time < 6 hr, dose 20 mg/kg, route intravenous
[28] = Ratio of AUC (0 to 6 hrs) kidney to serum in Crj:CD rat […] at 20 mg/kg, iv; assay type: ADME, organism-based; design: dose 20 mg/kg, route intravenous
[29] = Ratio of AUC (0 to 6 hrs) lung to serum in Crj:CD rat lung at 20 mg/kg, iv; assay type: ADME, organism-based; design: dose 20 mg/kg, route intravenous
[30] = Cmin in Crj:CD rat kidney at 20 mg/kg, iv after 5 mins; assay type: ADME, organism-based; design: dose 20 mg/kg, route intravenous; conditions: read-out: Cmin
Enterococcus faecalis [31] = experiment: Antibacterial activity against Enterococcus faecalis ATCC 19433 after 18 hrs by twofold microbroth dilution method; assay type: functional; conditions: ATCC19433, 18 h
[32] = tested on: Staphylococcus epidermidis; experiment: Antibacterial activity against Staphylococcus epidermidis 56500 after 18 hrs by twofold microbroth dilution method; assay type: functional; conditions: Staphylococcus epidermidis, 56500, 18 h
Staphylococcus aureus [33] = experiment: Antibacterial activity against ciprofloxacin, methicillin-resistant Staphylococcus aureus after 18 hrs by twofold microbroth dilution method; assay type: functional
[34] = Half life in Crj:CD rat serum at 20 mg/kg, po; assay type: ADME, organism-based; design: dose 20 mg/kg, route oral
Staphylococcus aureus [35] = experiment: Selectivity ratio of IC50 for Staphylococcus aureus DNA topoisomerase 4 Ser80Phe mutant to IC50 for Staphylococcus aureus wild type DNA topoisomerase 4
[36] = Half life in Crj:CD rat serum at 20 mg/kg, iv; assay type: ADME, organism-based; design: dose 20 mg/kg, route intravenous
Staphylococcus aureus [37] = experiment: Antibacterial activity against Staphylococcus aureus FDA 209-P after 18 hrs by twofold microbroth dilution method; assay type: functional
[38] = Cmin in Crj:CD rat serum at 20 mg/kg, iv after 5 mins; assay type: ADME, organism-based; design: dose 20 mg/kg, route intravenous; conditions: read-out: Cmin
Mus musculus [39] = experiment: Toxicity in Slc:ddY mouse at 100 mg/kg, iv; assay type: organism-based; design: dose 100 mg/kg, route intravenous; conditions: in vivo
Streptococcus pneumoniae [40] = experiment: Antibacterial activity against Streptococcus pneumoniae J-24 after 18 hrs by twofold microbroth dilution method; assay type: functional; conditions: J-24, 18 h
[41] = Half life in Crj:CD rat lung at 20 mg/kg, iv; assay type: ADME, organism-based; design: dose 20 mg/kg, route intravenous

## COc1c(N2CC[C@@H](C3(N)CC3)C2)ccc2c(=O)c(C(=O)O)cn([C@@H]3C[C@@H]3F)c12
Staphylococcus aureus [1]
  Ratio IC50: 9.35
[2]
  Kp: 4.6
[3]
  IC50: 1.76 µg/mL (≈ 4.38 µM)
[4]
  IC50: 0.309 µg/mL (≈ 0.77 µM)
[5]
  AUC(0-t) at 6 h: 64400 ng·h/mL
Mus musculus [6]
  Activity: Toxic
[7]
  AUC(0-t) at 6 h: 37500 ng·h/mL
[8]
  concentration at 5 min: 32400 ng/mL
[9]
  bioavailability: 67.4%
[10]
  concentration at 5 min: 48500 ng/mL
[11]
  bioavailability: 58.2%
[12]
  AUC(0-t) at 6 h: 64400 ng·h/mL
[13]
  AUC(0-t) at 6 h: 45500 ng·h/mL
Enterococcus faecium
  MIC50: 0.25 µg/mL (≈ 0.623 µM)
  MIC90: 2 µg/mL (≈ 4.98 µM)
[14]
  AUC(0-t) at 6 h: 9800 ng·h/mL
Klebsiella pneumoniae
  MIC: 0.05 µg/mL (≈ 0.125 µM)
DNA gyrase
  IC50: 2.08 µM
[15]
  half-life: 1.1 h
[16]
  half-life: 1.4 h
Streptococcus pneumoniae [17]
  MIC50: 0.03 µg/mL (≈ 0.0747 µM)
  MIC90: 0.03 µg/mL (≈ 0.0747 µM)
Staphylococcus aureus [18]
  MIC50: 0.12 µg/mL (≈ 0.299 µM)
  MIC80: 1 µg/mL (≈ 2.49 µM)
  MIC90: 1 µg/mL (≈ 2.49 µM)
Streptococcus pyogenes
  MIC: 0.006 µg/mL (≈ 0.0149 µM)
[19]
  Cmax: 3700 ng/mL
Streptococcus mitis
  MIC: 0.003 µg/mL (≈ 0.00747 µM)
Pseudomonas aeruginosa
  MIC: 0.39 µg/mL (≈ 0.972 µM)
DNA gyrase subunit A
  IC50: 19.5 µM
Enterococcus faecalis [20]
  MIC50: 0.25 µg/mL (≈ 0.623 µM)
  MIC90: 0.5 µg/mL (≈ 1.25 µM)
[21]
  AUC(0-t) at 6 h: 14500 ng·h/mL
[22]
  half-life: 6 h
[23]
  solubility: 480 µg/mL (≈ 1200 µM)
[24]
  Cmax: 12300 ng/mL
[25]
  half-life: 4.4 h
Escherichia coli
  MIC: ≤ 0.003 µg/mL
[26]
  Cmax: 6700 ng/mL
[27]
  AUC(0-t) at 6 h: 66100 ng·h/mL
[28]
  Kp: 4.4
[29]
  Kp: 3.1
[30]
  concentration at 5 min: 47200 ng/mL
Enterococcus faecalis [31]
  MIC: 0.025 µg/mL (≈ 0.0623 µM)
[32]
  MIC: 0.006 µg/mL (≈ 0.0149 µM)
Staphylococcus aureus [33]
  MIC50: 0.06 µg/mL (≈ 0.149 µM)
  MIC90: 0.5 µg/mL (≈ 1.25 µM)
[34]
  half-life: 1.3 h
Staphylococcus aureus [35]
  Ratio IC50: 5.7
[36]
  half-life: 1.2 h
Staphylococcus aureus [37]
  MIC: ≤ 0.003 µg/mL
[38]
  concentration at 5 min: 11000 ng/mL
Mus musculus [39]
  Activity: Non-toxic
Streptococcus pneumoniae [40]
  MIC: 0.006 µg/mL (≈ 0.0149 µM)
[41]
  half-life: 1.2 h

From ChEMBL document CHEMBL1152592, “Design, synthesis and biological evaluations of novel 7-[3-(1-aminocycloalkyl)pyrrolidin-1-yl]-6-desfluoro-8-methoxyquinolones with potent antibacterial activity against multi-drug resistant Gram-positive bacteria” (Bioorg Med Chem, 2009)
